# Reference: patent publication US6545032B1, “Synthesis of [3,5,7]-H-imidazo[1,5-a] imidazol-2(3H)-one compounds” (Torrey Pines Institute for Molecular Studies, priority 1999, dated 2003)
# How the values were obtained:
# mu opiate receptor = biological target: T1, mu opiate receptor (Rattus norvegicus, UniProt P33535); experiment: Inhibition of [3H]DAMGO binding to the mu opiate receptor in rat brain homogenates; design: Mean: unit not given beside the values; settings: 0.08 mg of compound per milliliter, 7 nM 3H-labeled DAMGO, rat brain membranes; for % Bound: [3H]DAMGO bound; for Mean: mean bound radioactivity of [3H]DAMGO; for Minus NSB*: mean minus non-specific binding; for % Inhibition: percent inhibition of DAMGO binding
# T1 construct: from tissue; host or cells: rat brain membranes/homogenate
# T1 sequence (P33535 whole entry): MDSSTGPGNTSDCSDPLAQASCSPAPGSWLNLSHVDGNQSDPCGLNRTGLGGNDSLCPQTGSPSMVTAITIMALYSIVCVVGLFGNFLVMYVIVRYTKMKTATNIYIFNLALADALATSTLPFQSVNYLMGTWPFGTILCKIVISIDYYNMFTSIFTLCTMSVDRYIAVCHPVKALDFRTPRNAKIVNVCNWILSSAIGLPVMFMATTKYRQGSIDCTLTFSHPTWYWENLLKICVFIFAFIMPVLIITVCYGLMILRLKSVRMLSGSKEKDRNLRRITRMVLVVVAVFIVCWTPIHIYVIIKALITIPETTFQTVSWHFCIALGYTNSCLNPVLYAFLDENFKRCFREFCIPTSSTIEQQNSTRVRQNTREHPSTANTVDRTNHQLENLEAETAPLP
# Summary of the method: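 Members of an imidazo-imidazolone compound library were tested for blocking binding of [^3H]DAMGO, a mu opiate receptor-specific ligand, to rat brain membranes. Each 0.65 mL tube held 0.08 mg of compound mixture per milliliter, 0.5 mL membrane suspension (0.1 mg of protein) and 7 nM ^3H-labeled DAMGO (36 Ci/mmol) in 50 mM Tris-HCl buffer (pH 7.4).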
# kappa opiate receptor = biological target: T2, kappa opiate receptor (Cavia porcellus, UniProt P41144); experiment: Inhibition of tritiated U69,593 binding to the kappa opiate receptor in guinea pig brain homogenates; design: Mean: unit not given beside the values; settings: 3 nm tritiated U69,593, guinea pig brain membranes; for % Bound: [3H]U69,593 bound; for % Inhibition: inhibition of [3H]U69,593 binding; for Mean: mean bound radioactivity of [3H]U69,593, 2.5 hours 25° C.; for Minus NSB: mean minus non-specific binding
# T2 construct: guinea pig cortices and cerebella were homogenized in 40 mL of Buffer A; from tissue; host or cells: guinea pig cortices and cerebella, crude membrane suspension
# T2 sequence (P41144 whole entry): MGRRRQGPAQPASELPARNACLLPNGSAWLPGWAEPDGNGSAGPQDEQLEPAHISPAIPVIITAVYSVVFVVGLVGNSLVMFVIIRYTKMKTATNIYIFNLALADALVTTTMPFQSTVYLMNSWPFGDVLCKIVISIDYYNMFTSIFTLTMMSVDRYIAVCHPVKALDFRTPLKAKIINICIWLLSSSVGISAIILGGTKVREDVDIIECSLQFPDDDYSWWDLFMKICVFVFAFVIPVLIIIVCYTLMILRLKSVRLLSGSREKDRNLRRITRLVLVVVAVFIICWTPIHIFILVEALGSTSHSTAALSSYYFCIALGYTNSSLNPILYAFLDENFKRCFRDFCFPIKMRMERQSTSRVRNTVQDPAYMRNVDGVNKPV
# Summary of the method: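 Guinea pig cortex and cerebellum membranes in 50 mM Tris-HCl pH 7.4 incubated with 3 nM [³H]U69,593 for 2.5 h at 25 °C, then filtered and bound radioactivity counted. Unlabelled U50,488 served as competitor for standard curve and nonspecific binding.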
structure (smiles),measurement,setting,value
CC(C)c1nc(CC2CCCCC2)n2c1NC(=O)C2C(C)C (stereo not drawn) [Pool 138],% Bound,mu opiate receptor,60%
same,Mean,mu opiate receptor,877.8
same,Minus NSB*,mu opiate receptor,569.80
same,% Inhibition,mu opiate receptor,40%
same,% Bound,kappa opiate receptor,70.685%
same,% Inhibition,kappa opiate receptor,29.315%
same,Mean,kappa opiate receptor,1639.3
same,Minus NSB,kappa opiate receptor,732.30
CC(C)c1nc(C(C2CCCCC2)C2CCCCC2)n2c1NC(=O)C2C(C)C (stereo not drawn) [Pool 139],% Bound,mu opiate receptor,65%
same,Mean,mu opiate receptor,928.85
same,Minus NSB*,mu opiate receptor,620.85
same,% Inhibition,mu opiate receptor,35%
same,% Bound,kappa opiate receptor,58.779%
same,% Inhibition,kappa opiate receptor,41.221%
same,Mean,kappa opiate receptor,1515.95
same,Minus NSB,kappa opiate receptor,608.95
CC(C)c1nc(CCCC2CCCCC2)n2c1NC(=O)C2C(C)C (stereo not drawn) [Pool 140],% Bound,mu opiate receptor,32%
same,Mean,mu opiate receptor,615.55
same,Minus NSB*,mu opiate receptor,307.55
same,% Inhibition,mu opiate receptor,68%
same,% Bound,kappa opiate receptor,49.903%
same,% Inhibition,kappa opiate receptor,50.097%
same,Mean,kappa opiate receptor,1424
same,Minus NSB,kappa opiate receptor,517.00
Cc1nc(C(C)C)c2n1C(C(C)C)C(=O)N2 (stereo not drawn) [Pool 142],% Bound,mu opiate receptor,67%
same,Mean,mu opiate receptor,946.05
same,Minus NSB*,mu opiate receptor,638.05
same,% Inhibition,mu opiate receptor,33%
same,% Bound,kappa opiate receptor,79.324%
same,% Inhibition,kappa opiate receptor,20.676%
same,Mean,kappa opiate receptor,1728.8
same,Minus NSB,kappa opiate receptor,821.80
CC(C)c1nc(C2CCC2)n2c1NC(=O)C2C(C)C (stereo not drawn) [Pool 144],% Bound,mu opiate receptor,59%
same,Mean,mu opiate receptor,867.3
same,Minus NSB*,mu opiate receptor,559.30
same,% Inhibition,mu opiate receptor,41%
same,% Bound,kappa opiate receptor,52.172%
same,% Inhibition,kappa opiate receptor,47.828%
same,Mean,kappa opiate receptor,1447.5
same,Minus NSB,kappa opiate receptor,540.50
CC(C)c1nc(C2CCCC2)n2c1NC(=O)C2C(C)C (stereo not drawn) [Pool 145],% Bound,mu opiate receptor,71%
same,Mean,mu opiate receptor,986.9
same,Minus NSB*,mu opiate receptor,678.90
same,% Inhibition,mu opiate receptor,29%
same,% Bound,kappa opiate receptor,61.501%
same,% Inhibition,kappa opiate receptor,38.499%
same,Mean,kappa opiate receptor,1544.15
same,Minus NSB,kappa opiate receptor,637.15
CC(C)c1nc(CCC2CCCC2)n2c1NC(=O)C2C(C)C (stereo not drawn) [Pool 146],% Bound,mu opiate receptor,67%
same,Mean,mu opiate receptor,945.85
same,Minus NSB*,mu opiate receptor,637.85
same,% Inhibition,mu opiate receptor,33%
same,% Bound,kappa opiate receptor,69.088%
same,% Inhibition,kappa opiate receptor,30.912%
same,Mean,kappa opiate receptor,1622.75
same,Minus NSB,kappa opiate receptor,715.75
CC(C)c1nc(CCC2CCCCC2)n2c1NC(=O)C2C(C)C (stereo not drawn) [Pool 148],% Bound,mu opiate receptor,61%
same,Mean,mu opiate receptor,890.8
same,Minus NSB*,mu opiate receptor,582.80
same,% Inhibition,mu opiate receptor,39%
same,% Bound,kappa opiate receptor,89.971%
same,% Inhibition,kappa opiate receptor,10.029%
same,Mean,kappa opiate receptor,1839.1
same,Minus NSB,kappa opiate receptor,932.10
CC1CCC(Cc2nc(C(C)C)c3n2C(C(C)C)C(=O)N3)CC1 (stereo not drawn) [Pool 152],% Bound,mu opiate receptor,48%
same,Mean,mu opiate receptor,770.1
same,Minus NSB*,mu opiate receptor,462.10
same,% Inhibition,mu opiate receptor,52%
same,% Bound,kappa opiate receptor,58.697%
same,% Inhibition,kappa opiate receptor,41.303%
same,Mean,kappa opiate receptor,1515.1
same,Minus NSB,kappa opiate receptor,608.10
CC(C)c1nc(CC2CC3CCC2C3)n2c1NC(=O)C2C(C)C (stereo not drawn) [Pool 155],% Bound,mu opiate receptor,64%
same,Mean,mu opiate receptor,918.35
same,Minus NSB*,mu opiate receptor,610.35
same,% Inhibition,mu opiate receptor,36%
same,% Bound,kappa opiate receptor,69.040%
same,% Inhibition,kappa opiate receptor,30.960%
same,Mean,kappa opiate receptor,1622.25
same,Minus NSB,kappa opiate receptor,715.25
CC(C)c1nc(CC23CC4CC(CC(C4)C2)C3)n2c1NC(=O)C2C(C)C (stereo not drawn) [Pool 156],% Bound,mu opiate receptor,65%
same,Mean,mu opiate receptor,925.85
same,Minus NSB*,mu opiate receptor,617.85
same,% Inhibition,mu opiate receptor,35%
same,% Bound,kappa opiate receptor,78.803%
same,% Inhibition,kappa opiate receptor,21.197%
same,Mean,kappa opiate receptor,1723.4
same,Minus NSB,kappa opiate receptor,816.40
CCC(CC)c1nc(C(C)C)c2n1C(C(C)C)C(=O)N2 (stereo not drawn) [Pool 157],% Bound,mu opiate receptor,65%
same,Mean,mu opiate receptor,930.35
same,Minus NSB*,mu opiate receptor,622.35
same,% Inhibition,mu opiate receptor,35%
same,% Bound,kappa opiate receptor,54.638%
same,% Inhibition,kappa opiate receptor,45.362%
same,Mean,kappa opiate receptor,1473.05
same,Minus NSB,kappa opiate receptor,566.05
